# Where a name gives a salt, the structure may show the parent alone.
# How the values were obtained:
# S. pyrogenes (UC 152) = experiment: Antibiotic potency: CD50 in mice challenged with a lethal dose of microorganism; type: in vivo; conditions: oral intubation at 0, 24, 48 and 72 hours after interperitoneal challenge with S. pyrogenes (UC 152), dose curing 50% of mice, mean (95% confidence limits); for ED50: Mus musculus
# Description: (§1) The antibiotic potency of the salts of the present invention is illustrated by the data below providing CD50's of the various antibiotic agents, dissolved in inert vehicle, when administered to mice by oral intubation at 0, 24, 48, and 72 hours after challenge of the mice with an interperitoneally administered dose of microorganism which, in the absence of antibiotic agent, would be lethal. The CD50 for an agent is the dose at which 50% of the mice are cured under such a dosing schedule. In the data below the first number in each entry is the mean value and the numbers in parenthesis are the 95% confidence limits: […]
# S. aureus = experiment: as above; type: in vivo; conditions: oral intubation at 0, 24, 48 and 72 hours after interperitoneal challenge with S. aureus, dose curing 50% of mice, mean (95% confidence limits)
# Description: as §1
Structure (SMILES),ED50 (S. pyrogenes (UC 152)) [µmol/kg],"ED50 (S. aureus; Staphylococcus aureus, po) [µmol/kg]",CD50 (S. pyrogenes (UC 152)),CD50 (S. aureus),CD50 (S. aureus; hydrochloride)
"CC1(C)S[C@@H]2[C@H](NC(=O)[C@H](N)c3ccccc3)C(=O)N2[C@H]1C(=O)O [ampicillin, 6-[D-(2-amino-2-phenylacetamido)] penicillanicacid]",0.49,2,–,–,–
"CCOC(=O)OC(C)OC(=O)[C@@H]1N2C(=O)[C@@H](NC(=O)[C@H](N)c3ccccc3)[C@H]2SC1(C)C (stereo partly drawn) [bacampicillin 1-naphthalene-sulfonate, Bacampicillin 1-Naphthalenesulfonate]",–,–,0.15 (0.10-0.20) micromoles/kg,0.74 (0.43-1.3) micromoles/kg,–
"CCOC(=O)OC(C)OC(=O)[C@@H]1N2C(=O)[C@@H](NC(=O)[C@H](N)c3ccccc3)[C@H]2SC1(C)C (stereo partly drawn) [bacampicillin-HCl, bacampicillin hydrochloride]",0.19,–,–,–,1.5 (1.0-2.3) micromoles/kg

# Source: patent publication EP0089767A1, “Acid addition salts of a penicillanic acid derivative” (UPJOHN LIMITED, priority 1982, dated 1983)
